Positions of bridges follow the written chain, without caps; N, C: chain ends. Non-standard residues stand in square brackets, D forms with d. Residues, ends and D or L forms follow the SMILES beside them. Bta = N[C@@H](Cc1csc2ccccc12)C(=O)O; Hyp = O=C(O)[C@@H]1C[C@@H](O)CN1; NMeE = CN[C@@H](CCC(=O)O)C(=O)O; NMeD = CN[C@@H](CC(=O)O)C(=O)O; NMeNle = CCCC[C@H](NC)C(=O)O; NMeA = CN[C@@H](C)C(=O)O; Orn = NCCC[C@H](N)C(=O)O; Dab = NCC[C@H](N)C(=O)O; Dap = NC[C@H](N)C(=O)O
Experiments:
[1] = target: T1, LK35.2-hPD-L1 cells / PE-labeled PD-1-Ig (Homo sapiens, UniProt Q9NZQ7); test: LK35.2-hPD-L1 cell binding high-content screening assay; assay type: cell-based; conditions: cluster symbol; cell line of CBA not given (LK35.2-hPD-L1 or 293T-hPD-L1); read-out: CBA IC50 cluster
T1 construct: expressed in transfected cells; host or cells: LK35.2 mouse B cell line
Outline: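 Using overnight-cultured LK35.2-hPD-L1 mouse B cells, compound was co-incubated with phycoerythrin-tagged human PD-1-Ig (final 1 nM) at 37 °C for one hour. Unbound label was removed by triple dPBS washing prior to high-content image acquisition and analysis.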

[2] = target: T2, Human PD-L1/PD-1 (Homo sapiens, UniProt Q9NZQ7); test: HTRF PD-1-Ig/PD-L1-His binding assay (human PD-L1); conditions: cluster symbol; read-out: HTRF IC50 cluster
T2 construct: made in house; host or cells: HEK293T
Outline: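 Interaction of Fc-tagged soluble PD-1 with His-tagged soluble PD-L1 is monitored by time-resolved FRET. Donor is europium cryptate anti-Ig (1 nM final) and acceptor is APC anti-His (20 nM final). Assay buffer is dPBS with 0.1% BSA and 0.05% Tween-20.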

T1 sequence (Q9NZQ7 19-290): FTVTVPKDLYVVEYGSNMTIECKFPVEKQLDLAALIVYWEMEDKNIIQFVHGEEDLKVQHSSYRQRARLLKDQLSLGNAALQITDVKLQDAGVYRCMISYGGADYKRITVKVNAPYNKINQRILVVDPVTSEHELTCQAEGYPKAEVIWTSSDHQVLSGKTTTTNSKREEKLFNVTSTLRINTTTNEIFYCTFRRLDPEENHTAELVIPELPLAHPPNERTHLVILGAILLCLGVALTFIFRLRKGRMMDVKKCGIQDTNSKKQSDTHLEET
T2 sequence (Q9NZQ7 with tags, fused parts or gaps): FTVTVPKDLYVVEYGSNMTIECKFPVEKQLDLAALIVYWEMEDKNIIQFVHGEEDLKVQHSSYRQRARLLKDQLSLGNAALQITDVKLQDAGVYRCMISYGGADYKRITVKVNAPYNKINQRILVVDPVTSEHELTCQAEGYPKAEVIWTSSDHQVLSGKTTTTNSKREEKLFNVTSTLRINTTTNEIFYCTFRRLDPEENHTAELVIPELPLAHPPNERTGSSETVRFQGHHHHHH

IC50 [1] [nM]	IC50 [2] [nM]	Structure (SMILES)
0.158 to 4.71	0.385 to 6.74	CCCC[C@H]1C(=O)N(C)[C@@H](CCCC)C(=O)N[C@@H](CCCN)C(=O)N[C@H](C(=O)NCC(N)=O)CSCC(=O)N[C@@H](Cc2ccc(O)cc2)C(=O)N2CCCC[C@H]2C(=O)N[C@@H](CC(N)=O)C(=O)N2CCC[C@H]2C(=O)N[C@@H](Cc2cnc[nH]2)C(=O)N[C@@H](CC(C)C)C(=O)N2C[C@H](O)C[C@H]2C(=O)N[C@@H](Cc2c[nH]c3ccccc23)C(=O)N[C@@H](CO)C(=O)N[C@@H](Cc2c[nH]c3ccccc23)C(=O)N1C [Example 1177]
4.78 to 72.9	0.385 to 6.74	CCCC[C@H]1C(=O)N(C)[C@@H](CCCC)C(=O)N[C@@H](C)C(=O)N[C@H](C(=O)NCC(N)=O)CSCC(=O)N[C@@H](Cc2ccc(O)cc2)C(=O)N(C)[C@@H](C)C(=O)N[C@@H](CCC(=O)O)C(=O)N2CCC[C@H]2C(=O)N[C@@H](Cc2cnc[nH]2)C(=O)N[C@@H](CCCN)C(=O)N2C[C@H](O)C[C@H]2C(=O)N[C@@H](Cc2c[nH]c3ccccc23)C(=O)N[C@@H](CO)C(=O)N[C@@H](Cc2c[nH]c3ccccc23)C(=O)N1C [Example 1178] ({CH2CO}-Y[NMeA]EPH[Orn][Hyp]WSW[NMeNle][NMeNle]ACG-NH2; thioether N-14)
4.78 to 72.9	0.385 to 6.74	CCCC[C@H]1C(=O)N(C)[C@@H](CCCC)C(=O)N[C@@H](C)C(=O)N[C@H](C(=O)NCC(N)=O)CSCC(=O)N[C@@H](Cc2ccc(O)cc2)C(=O)N(C)[C@@H](C)C(=O)N[C@@H](CCCN)C(=O)N2CCC[C@H]2C(=O)N[C@@H](Cc2cnc[nH]2)C(=O)N[C@@H](CCC(=O)O)C(=O)N2C[C@H](O)C[C@H]2C(=O)N[C@@H](Cc2c[nH]c3ccccc23)C(=O)N[C@@H](CO)C(=O)N[C@@H](Cc2c[nH]c3ccccc23)C(=O)N1C [Example 1179] ({CH2CO}-Y[NMeA][Orn]PHE[Hyp]WSW[NMeNle][NMeNle]ACG-NH2; thioether N-14)
0.158 to 4.71	0.385 to 6.74	CCCC[C@H]1C(=O)N(C)[C@@H](CCCC)C(=O)N[C@@H](CN)C(=O)N[C@H](C(=O)NCC(N)=O)CSCC(=O)N[C@@H](Cc2ccc(O)cc2)C(=O)N(C)[C@@H](C)C(=O)N[C@@H](CC(N)=O)C(=O)N2CCC[C@H]2C(=O)N[C@@H](CN)C(=O)N[C@@H](CC(C)C)C(=O)N2C[C@H](O)C[C@H]2C(=O)N[C@@H](Cc2c[nH]c3ccccc23)C(=O)N[C@@H](CCN)C(=O)N[C@@H](Cc2csc3ccccc23)C(=O)N1C [Example 1180] ({CH2CO}-Y[NMeA]NP[Dap]L[Hyp]W[Dab][Bta][NMeNle][NMeNle][Dap]CG-NH2; thioether N-14)
> 74.3	6.76 to 30.3	CCCC[C@H]1C(=O)N(C)[C@@H](CCCC)C(=O)N[C@@H](CCCN)C(=O)N[C@H](C(=O)NCC(N)=O)CSCC(=O)N[C@@H](Cc2ccc(O)cc2)C(=O)N2CCC[C@H]2C(=O)N[C@@H](CC(=O)O)C(=O)N2CCC[C@H]2C(=O)N[C@@H](CN)C(=O)N[C@@H](CC(=O)O)C(=O)N2C[C@H](O)C[C@H]2C(=O)N[C@@H](Cc2c[nH]c3ccccc23)C(=O)N[C@@H](CCN)C(=O)N[C@@H](Cc2csc3ccccc23)C(=O)N1C [Example 1181] ({CH2CO}-YPDP[Dap]D[Hyp]W[Dab][Bta][NMeNle][NMeNle][Orn]CG-NH2; thioether N-14)
0.158 to 4.71	0.385 to 6.74	CCCC[C@H]1C(=O)N(C)[C@@H](CCCC)C(=O)N[C@@H](CCCN)C(=O)N[C@H](C(=O)NCC(N)=O)CSCC(=O)N[C@@H](Cc2ccc(O)cc2)C(=O)N(C)[C@@H](C)C(=O)N[C@@H](CC(=O)O)C(=O)N2CCC[C@H]2C(=O)N[C@@H](CN)C(=O)N[C@@H](CCC(N)=O)C(=O)N2C[C@H](O)C[C@H]2C(=O)N[C@@H](Cc2c[nH]c3ccccc23)C(=O)N[C@@H](CCN)C(=O)N[C@@H](Cc2csc3ccccc23)C(=O)N1C [Example 1182] ({CH2CO}-Y[NMeA]DP[Dap]Q[Hyp]W[Dab][Bta][NMeNle][NMeNle][Orn]CG-NH2; thioether N-14)
0.158 to 4.71	0.385 to 6.74	CCCC[C@H]1C(=O)N(C)[C@@H](CCCC)C(=O)N[C@@H](CCCN)C(=O)N[C@H](C(=O)NCC(N)=O)CSCC(=O)N[C@@H](Cc2ccc(O)cc2)C(=O)N(C)[C@@H](C)C(=O)N[C@@H](CC(=O)O)C(=O)N2CCC[C@H]2C(=O)N[C@@H](CN)C(=O)N[C@@H](CCC(=O)O)C(=O)N2C[C@H](O)C[C@H]2C(=O)N[C@@H](Cc2c[nH]c3ccccc23)C(=O)N[C@@H](CCN)C(=O)N[C@@H](Cc2csc3ccccc23)C(=O)N1C [Example 1183] ({CH2CO}-Y[NMeA]DP[Dap]E[Hyp]W[Dab][Bta][NMeNle][NMeNle][Orn]CG-NH2; thioether N-14)
0.158 to 4.71	0.385 to 6.74	CCCC[C@H]1C(=O)N(C)[C@@H](CCCC)C(=O)N[C@@H](CCCN)C(=O)N[C@H](C(=O)NCC(N)=O)CSCC(=O)N[C@@H](Cc2ccc(O)cc2)C(=O)N(C)[C@@H](C)C(=O)N[C@@H](CC(=O)O)C(=O)N2CCC[C@H]2C(=O)N[C@@H](CN)C(=O)N[C@@H](CC(=O)O)C(=O)N2C[C@H](O)C[C@H]2C(=O)N[C@@H](Cc2c[nH]c3ccccc23)C(=O)N[C@@H](CCN)C(=O)N[C@@H](Cc2csc3ccccc23)C(=O)N1C [Example 1184] ({CH2CO}-Y[NMeA]DP[Dap]D[Hyp]W[Dab][Bta][NMeNle][NMeNle][Orn]CG-NH2; thioether N-14)
0.158 to 4.71	0.385 to 6.74	CCCC[C@H]1C(=O)N(C)[C@@H](CCCC)C(=O)N[C@@H](CCCN)C(=O)N[C@H](C(=O)NCC(N)=O)CSCC(=O)N[C@@H](Cc2ccc(O)cc2)C(=O)N(C)[C@@H](C)C(=O)N[C@@H](CC(N)=O)C(=O)N2CCC[C@H]2C(=O)N[C@@H](CN)C(=O)N[C@@H](CCC(=O)O)C(=O)N2C[C@H](O)C[C@H]2C(=O)N[C@@H](Cc2c[nH]c3ccccc23)C(=O)N[C@@H](CCN)C(=O)N[C@@H](Cc2csc3ccccc23)C(=O)N1C [Example 1185] ({CH2CO}-Y[NMeA]NP[Dap]E[Hyp]W[Dab][Bta][NMeNle][NMeNle][Orn]CG-NH2; thioether N-14)
0.158 to 4.71	0.385 to 6.74	CCCC[C@H]1C(=O)N(C)[C@@H](CCCC)C(=O)N[C@@H](CCCN)C(=O)N[C@H](C(=O)NCC(N)=O)CSCC(=O)N[C@@H](Cc2ccc(O)cc2)C(=O)N(C)[C@@H](C)C(=O)N[C@@H](CC(N)=O)C(=O)N2CCC[C@H]2C(=O)N[C@@H](CN)C(=O)N[C@@H](CC(=O)O)C(=O)N2C[C@H](O)C[C@H]2C(=O)N[C@@H](Cc2c[nH]c3ccccc23)C(=O)N[C@@H](CCN)C(=O)N[C@@H](Cc2csc3ccccc23)C(=O)N1C [Example 1186] ({CH2CO}-Y[NMeA]NP[Dap]D[Hyp]W[Dab][Bta][NMeNle][NMeNle][Orn]CG-NH2; thioether N-14)
4.78 to 72.9	6.76 to 30.3	CCCC[C@H]1C(=O)N(C)[C@@H](CCCC)C(=O)N[C@@H](CCCN)C(=O)N[C@H](C(=O)NCC(N)=O)CSCC(=O)N[C@@H](Cc2ccc(O)cc2)C(=O)N2CCC[C@H]2C(=O)N[C@@H](CC(=O)O)C(=O)N2CCC[C@H]2C(=O)N[C@@H](CN)C(=O)N[C@@H](CCC(N)=O)C(=O)N2C[C@H](O)C[C@H]2C(=O)N[C@@H](Cc2c[nH]c3ccccc23)C(=O)N[C@@H](CCN)C(=O)N[C@@H](Cc2csc3ccccc23)C(=O)N1C [Example 1187] ({CH2CO}-YPDP[Dap]Q[Hyp]W[Dab][Bta][NMeNle][NMeNle][Orn]CG-NH2; thioether N-14)
4.78 to 72.9	6.76 to 30.3	CCCC[C@H]1C(=O)N(C)[C@@H](CCCC)C(=O)N[C@@H](CCCN)C(=O)N[C@H](C(=O)NCC(N)=O)CSCC(=O)N[C@@H](Cc2ccc(O)cc2)C(=O)N2C[C@@H](N)C[C@H]2C(=O)N[C@@H](CC(N)=O)C(=O)N2CCC[C@H]2C(=O)N[C@@H](Cc2cnc[nH]2)C(=O)N[C@@H](CC(C)C)C(=O)N2C[C@H](O)C[C@H]2C(=O)N[C@@H](Cc2c[nH]c3ccccc23)C(=O)N[C@@H](CO)C(=O)N[C@@H](Cc2c[nH]c3ccccc23)C(=O)N1C [Example 1188]
> 74.3	> 30.5	CCCC[C@H]1C(=O)N(C)[C@@H](CCCC)C(=O)N[C@@H](CCCNC(=N)N)C(=O)N[C@H](C(=O)NCC(N)=O)CSCC(=O)N[C@@H](Cc2ccc(O)cc2)C(=O)N(C)[C@@H](CCC(=O)O)C(=O)N[C@@H](CC(N)=O)C(=O)N2CCC[C@H]2C(=O)N[C@@H](Cc2cnc[nH]2)C(=O)N[C@@H](CC(C)C)C(=O)N(C)CC(=O)N[C@@H](Cc2c[nH]c3ccccc23)C(=O)N[C@@H](CO)C(=O)N[C@@H](Cc2c[nH]c3ccccc23)C(=O)N1C [Example 1189]
> 74.3	> 30.5	CCCC[C@H]1C(=O)N(C)[C@@H](CCCC)C(=O)N[C@@H](CCCNC(=N)N)C(=O)N[C@H](C(=O)NCC(N)=O)CSCC(=O)N[C@@H](Cc2ccc(O)cc2)C(=O)N(C)[C@@H](CC(=O)O)C(=O)N[C@@H](CC(N)=O)C(=O)N2CCC[C@H]2C(=O)N[C@@H](Cc2cnc[nH]2)C(=O)N[C@@H](CC(C)C)C(=O)N2CCC[C@H]2C(=O)N[C@@H](Cc2c[nH]c3ccccc23)C(=O)N[C@@H](CO)C(=O)N[C@@H](Cc2csc3ccccc23)C(=O)N1C [Example 1190] ({CH2CO}-Y[NMeD]NPHLPWS[Bta][NMeNle][NMeNle]RCG-NH2; thioether N-14)
> 74.3	> 30.5	CCCC[C@H]1C(=O)N(C)[C@@H](CCCC)C(=O)N[C@@H](CCCNC(=N)N)C(=O)N[C@H](C(=O)NCC(N)=O)CSCC(=O)N[C@@H](Cc2ccc(O)cc2)C(=O)N(C)[C@@H](CCC(=O)O)C(=O)N[C@@H](CC(N)=O)C(=O)N2CCC[C@H]2C(=O)N[C@@H](Cc2cnc[nH]2)C(=O)N[C@@H](CC(C)C)C(=O)N2CCC[C@H]2C(=O)N[C@@H](Cc2c[nH]c3ccccc23)C(=O)N[C@@H](CO)C(=O)N[C@@H](Cc2csc3ccccc23)C(=O)N1C [Example 1191] ({CH2CO}-Y[NMeE]NPHLPWS[Bta][NMeNle][NMeNle]RCG-NH2; thioether N-14)

Source: US9850283B2, “Macrocyclic inhibitors of the PD-1/PD-L1 and CD80(B7-1)/PD-L1 protein/protein interactions” (BRISTOL-MYERS SQUIBB COMPANY, priority 2013, dated 2017)
